According to US4824936A, “(19-Alanine) calcitonin” (Rorer Pharmaceutical Corporation, priority 1987, dated 1989):
Bridge positions count the residues as written; N and C are the ends. Peptide text beside a SMILES is read from it.

Key:
[1] = tested on: serum calcium concentration
Description: Biological Assay of Calcitonin Analogs in Vivo
Rats were divided into four groups of seven animals, and each group was assigned at random to a dose of standard or test solution. Low and high doses were chosen from the linear portion of the dose-response curve. For the salmon calcitonin standard, the values were 0.7 and 2.1 mcg. peptide/100 g. body weight (BW). This dose approximates 3 and 9 MU/100 g. […] Peptides were given by subcutaneous injection (0.2 ml/100 g. BW) and blood was withdrawn 1 hour later for serum calcium determination. Sera are processed and analyzed within two hours of collection.

[2] = literature values; cited from earlier work

| Compound | hypocalcemic potency [2] | other results |
| --- | --- | --- |
| CC(C)C[C@H](NC(=O)[C@H](CCCCN)NC(=O)CNC(=O)[C@H](CC(C)C)NC(=O)[C@@H](NC(=O)[C@@H]1CSSC[C@H](N)C(=O)N[C@@H](CO)C(=O)N[C@@H](CC(N)=O)C(=O)N[C@@H](CC(C)C)C(=O)N[C@@H](CO)C(=O)N[C@@H]([C@@H](C)O)C(=O)N1)C(C)C)C(=O)N[C@@H](CO)C(=O)N[C@@H](CCC(N)=O)C(=O)N[C@@H](CCC(=O)O)C(=O)N[C@@H](CC(C)C)C(=O)N[C@@H](Cc1c[nH]cn1)C(=O)N[C@@H](CCCCN)C(=O)N[C@@H](C)C(=O)N[C@@H](CCC(N)=O)C(=O)N[C@H](C(=O)N[C@@H](Cc1ccc(O)cc1)C(=O)N1CCC[C@H]1C(=O)N[C@@H](CCCNC(=N)N)C(=O)N[C@H](C(=O)N[C@@H](CC(N)=O)C(=O)N[C@H](C(=O)NCC(=O)N[C@@H](CO)C(=O)NCC(=O)N[C@H](C(=O)N1CCC[C@H]1C(N)=O)[C@@H](C)O)[C@@H](C)O)[C@@H](C)O)[C@@H](C)O [[Ala^19]SCT, [19-Alanine] salmon calcitonin] (H-CSNLSTCVLGKLSQELHKAQTYPRTNTGSGTP-NH2; disulfide 1-7) |  | biological potency ([1]; rat, in vivo, sc): 5400 IU/mg |
| CC(C)C[C@H](NC(=O)[C@H](CCCCN)NC(=O)CNC(=O)[C@H](CC(C)C)NC(=O)[C@@H](NC(=O)[C@@H]1CSSC[C@H](N)C(=O)N[C@@H](CO)C(=O)N[C@@H](CC(N)=O)C(=O)N[C@@H](CC(C)C)C(=O)N[C@@H](CO)C(=O)N[C@@H]([C@@H](C)O)C(=O)N1)C(C)C)C(=O)N[C@@H](CO)C(=O)N[C@@H](CCC(N)=O)C(=O)N[C@@H](CCC(=O)O)C(=O)N[C@@H](CC(C)C)C(=O)N[C@@H](Cc1c[nH]cn1)C(=O)N[C@@H](CCCCN)C(=O)N[C@@H](CC(C)C)C(=O)N[C@@H](CCC(N)=O)C(=O)N[C@H](C(=O)N[C@@H](Cc1ccc(O)cc1)C(=O)N1CCC[C@H]1C(=O)N[C@@H](CCCNC(=N)N)C(=O)N[C@H](C(=O)N[C@@H](CC(N)=O)C(=O)N[C@H](C(=O)NCC(=O)N[C@@H](CO)C(=O)NCC(=O)N[C@H](C(=O)N1CCC[C@H]1C(N)=O)[C@@H](C)O)[C@@H](C)O)[C@@H](C)O)[C@@H](C)O [standard salmon calcitonin, Salmon calcitonin] |  | biological potency of the standard, independently determined ([1]; standard used in the assay, independently determined): greater than 4,000 IU/mg |
| (1,7-alpha-L-amino-suberic acid) eel calcitonin | about 3400 IU/mg |  |
| eel calcitonin [synthetic eel calcitonin] | around 4300 IU/mg |  |
